Experimental data reported in article PMC3731256, “Optimization of Substituted 6-Salicyl-4-Anilinoquinazoline Derivatives as Dual EGFR/HER2 Tyrosine Kinase Inhibitors” (PLoS ONE, 2013).

What was measured:
Aurora A = molecular target: T1, Aurora A (Homo sapiens, UniProt O14965); assay: Serine/threonine kinase profiling ([γ-32P] ATP), Aurora A; type: biochemical; conditions: ATP concentration = Km
T1 construct: 6xHis (N); made in house; host or cells: baculovirus expression system
T1 sequence (O14965 1-403): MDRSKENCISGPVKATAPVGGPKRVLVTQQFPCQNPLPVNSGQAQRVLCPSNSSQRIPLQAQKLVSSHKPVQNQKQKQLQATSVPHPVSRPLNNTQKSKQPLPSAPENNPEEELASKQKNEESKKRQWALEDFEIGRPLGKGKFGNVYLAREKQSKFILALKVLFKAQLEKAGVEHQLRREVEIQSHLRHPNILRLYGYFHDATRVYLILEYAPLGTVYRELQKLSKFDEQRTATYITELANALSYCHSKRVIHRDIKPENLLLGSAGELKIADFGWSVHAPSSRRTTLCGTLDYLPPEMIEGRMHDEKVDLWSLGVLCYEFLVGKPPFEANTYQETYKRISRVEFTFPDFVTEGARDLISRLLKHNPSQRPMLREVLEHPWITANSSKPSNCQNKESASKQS
Protocol: (§1) Assays for 4 serine/threonine kinases using radio labeled [γ-^32P] ATP (GE Healthcare, Piscataway, NJ) were performed in 96 well plates. Mitogen-activated protein kinase p38α (p38α), was expressed as N-terminal FLAG-tagged protein using a baculovirus expression system. Aurora-A and -B were expressed as N-terminal 6xHis tagged protein using a baculovirus expression system. CDK2/CycA was expressed as C-terminal 6His-tagged CDK2, and N-terminal GST-tagged Cyclin A protein using a baculovirus expression system.
(§2) The reaction conditions were optimized for each kinase: p38α (100 ng/well of enzyme, 1 μg/well of MBP (Wako Pure Chemical Ind., Osaka, Japan), 0.1 μCi/well of [γ-^32P] ATP, 60 min reaction at 30 ℃); Aurora-A and -B (50 ng/well of enzyme, 30 μM of Aurora substrate peptide, 0.2 μCi/well of [γ-^32P] ATP, 60 min reaction at room temperature); CDK2/CycA (1.8 mUnits/well of enzyme, 1 μg/well of Histone H1 (Calbiochem), 0.2 μCi/well of [γ-^32P] ATP, 20 min reaction at room temperature).
(§3) All the four enzyme reactions were performed in 25 mM HEPES, pH 7.5, 10 mM magnesium acetate, 1 mM dithiothreitol and 0.5 μM ATP containing optimized concentration of enzyme, substrate and radiolabeled ATP as described above in a total volume of 50 μl. […] The radioactivity was counted by a TopCount scintillation counter (PerkinElmer).

PDGFRα = molecular target: T2, PDGFRα (Homo sapiens, UniProt P16234); assay: Tyrosine kinase profiling (Alphascreen), PDGFRα; type: biochemical; conditions: ATP concentration = Km
T2 construct: The cytoplasmic domain of vascular endothelial growth factor receptor 2 (VEGFR2), platelet-derived growth factor receptor α (PDGFRα); purchased Millipore Corp
T2 sequence (P16234 550-1089 limits assumed, species assumed): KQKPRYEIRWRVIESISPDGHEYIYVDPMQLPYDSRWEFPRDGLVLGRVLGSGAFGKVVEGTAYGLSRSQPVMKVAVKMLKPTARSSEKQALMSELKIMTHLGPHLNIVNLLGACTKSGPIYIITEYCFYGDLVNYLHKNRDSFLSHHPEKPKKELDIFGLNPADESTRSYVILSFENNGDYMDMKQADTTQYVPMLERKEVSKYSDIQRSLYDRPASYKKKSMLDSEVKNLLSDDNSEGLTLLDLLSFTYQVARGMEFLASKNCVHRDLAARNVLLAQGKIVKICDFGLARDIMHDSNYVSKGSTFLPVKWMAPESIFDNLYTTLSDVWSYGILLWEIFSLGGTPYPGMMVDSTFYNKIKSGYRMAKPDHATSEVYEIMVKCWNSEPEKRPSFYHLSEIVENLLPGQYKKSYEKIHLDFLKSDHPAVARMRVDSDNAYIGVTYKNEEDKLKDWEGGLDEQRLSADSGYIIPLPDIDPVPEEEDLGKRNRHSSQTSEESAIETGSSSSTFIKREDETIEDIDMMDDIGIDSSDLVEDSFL
Protocol: (§4) The cytoplasmic domain of vascular endothelial growth factor receptor 2 (VEGFR2), platelet-derived growth factor receptor α (PDGFRα), cSRC were purchased from Millipore Corp. Assays for 3 tyrosine kinases were performed in 384 well plates using the Alphascreen® system (PerkinElmer) at room temperature. Enzyme reactions were performed in 50 mM Tris–HCl, pH7.5, 5 mM MnCl2, 5 mM MgCl2, 0.01% Tween-20, 2 mM dithiothreitol and 0.1 μg/ml biotinylated poly-GluTyr (4:1) containing optimized concentration of enzyme and ATP as described below.
(§5) Prior to the kinase reaction, compound and enzyme were incubated for 5 min at room temperature. The reactions were initiated by adding ATP. After the reaction period as described below at room temperature, the reactions were stopped by the addition of 25 μl of 100 mM EDTA, 10 μg/ml Alphascreen streptavidin donor beads and 10 μg/ml acceptor beads described below in 62.5 mM HEPES, pH 7.4, 250 mM NaCl, and 0.1% BSA. Plates were incubated in the dark for more than 12 h and then read by EnVision 2102 Multilabel Reader (PerkinElmer). The well containing substrate and enzyme without compound was used as total reaction control. […]

H1975 cells = assay: Antiproliferation WST-1 assay, H1975; type: cell-based; conditions: Homo sapiens, NCI-H1975, NSCLC, EGFR L858R/T790M
Protocol: WST-1 is better than MTT for analyzing cell proliferation, because it can be reduced to soluble formazan by dehydrogenase in mitochondria and has little toxicity to cells. Cell proliferation was determined using WST-1 dye (Beyotime Inst Biotech, China) according to manufacture’s instructions. Brieﬂy, 5 × 10^3 cells per well were seeded in a 96-well plate, grown at 37 ℃ for 24 h, and then placed in serum-starved conditions for a further 6 h. Subsequently, cells were treated with compounds (Table 1) at increasing concentrations in the presence of 10% FBS for 24 or 48h. After 10 µL WST-1 dye was added to each well, cells were incubated at 37 ℃ for 2 h and the absorbance was ﬁnally determined at 450 nm using a microplate reader.

CDK2/CycA = molecular target: T3, CDK2/CycA (Homo sapiens, UniProt P24941); assay: Serine/threonine kinase profiling ([γ-32P] ATP), CDK2; type: biochemical
T3 construct: 6His (C); made in house; host or cells: baculovirus expression system
Protocol: as §1, §2, §3

cSRC = molecular target: T4, cSRC (Homo sapiens, UniProt P12931); assay: Tyrosine kinase profiling (Alphascreen), cSRC; type: biochemical; conditions: ATP concentration = Km
T4 construct: purchased Millipore Corp
T4 sequence (P12931 whole entry, species assumed): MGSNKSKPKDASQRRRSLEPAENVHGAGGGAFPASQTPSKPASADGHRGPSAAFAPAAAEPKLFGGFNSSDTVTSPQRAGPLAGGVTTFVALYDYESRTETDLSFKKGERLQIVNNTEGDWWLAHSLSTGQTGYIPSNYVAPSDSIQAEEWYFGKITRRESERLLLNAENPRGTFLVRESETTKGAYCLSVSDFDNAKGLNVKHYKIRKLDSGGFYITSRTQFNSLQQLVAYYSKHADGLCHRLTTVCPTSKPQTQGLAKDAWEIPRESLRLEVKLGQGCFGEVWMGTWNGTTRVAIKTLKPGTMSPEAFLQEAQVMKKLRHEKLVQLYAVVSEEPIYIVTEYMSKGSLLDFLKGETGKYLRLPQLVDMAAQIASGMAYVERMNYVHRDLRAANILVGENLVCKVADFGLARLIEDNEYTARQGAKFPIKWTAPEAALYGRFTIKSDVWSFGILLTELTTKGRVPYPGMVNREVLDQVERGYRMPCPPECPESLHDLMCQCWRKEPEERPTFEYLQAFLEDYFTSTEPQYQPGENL
Protocol: as §4, §5

O=C(Nc1ccc2ncnc(Nc3cccc(Br)c3)c2c1)c1ccc(C(F)(F)F)cc1O [Compound 21, N-(4-(3-bromophenylamino)quinazolin-6-yl)-2-hydroxy-4-(trifluoromethyl)benzamide]
IC50 (Aurora A): 58.4 ± 0.78 µM
IC50 (PDGFRα): 17.3 ± 0.06 µM
IC50 (H1975 cells): 3.3 ± 0.233 µM
IC50 (CDK2/CycA; ATP concentration = Km): 3.5 µM
pIC50 CDK2 (CDK2/CycA; converted from IC50 by online calculator): 5.46
IC50 (cSRC): 11.9 ± 0.78 µM
melting point: 289 to 291 °C
